Data published in the supplement of paper PMC10307832.

Assays:
Test in all cases: relative viability (nuclei count vs DMSO), 5 days (fraction); higher = more cells survive
TGX 221 + Pemetrexed = compound: CC1=CN2C(=O)C=C(N=C2C(=C1)C(C)NC3=CC=CC=C3)N4CCOCC4 [TGX 221] + Nc1nc2[nH]cc(CCc3ccc(C(=O)N[C@@H](CCC(=O)O)C(=O)O)cc3)c2c(=O)[nH]1 [Pemetrexed] (partner 0.2 µM)
Procedure, shortened: (§1)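 For relative viability, nuclei counts in treated wells were divided by those in vehicle wells. Lung cancer cell lines had been pin-tool dosed in 1536-well plates the day after seeding and cultured for 5 days, then fixed and stained in one step (final 0.05% Triton X-100, 1% formaldehyde, 1 ug/ml Hoechst) and imaged at 4×. Doses were one drug alone or a fixed anchor-drug dose plus five library-drug doses (not always all listed) in √10 steps, and values are duplicate-plate medians.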

[1] = compound: C1=CC=C(C(=C1)C2=CC=C(C=C2)C3=CSC4=C3C(=C(C(=O)N4)C#N)O)O + Cc1nc(NC(=O)N2CCC[C@H]2C(N)=O)sc1-c1ccnc(C(C)(C)C(F)(F)F)c1 [Alpelisib] (partner 2 µM)
Procedure, shortened: as §1

[2] = compound: C1=CC=C(C(=C1)C2=CC=C(C=C2)C3=CSC4=C3C(=C(C(=O)N4)C#N)O)O + Cc1nc(Nc2ncc(C(=O)Nc3c(C)cccc3Cl)s2)cc(N2CCN(CCO)CC2)n1 [Dasatinib] (partner 0.075 µM)
Procedure, shortened: as §1

TGX 221 + OSI-027 = compound: CC1=CN2C(=O)C=C(N=C2C(=C1)C(C)NC3=CC=CC=C3)N4CCOCC4 [TGX 221] + COc1cccc2cc(-c3nc([C@H]4CC[C@H](C(=O)O)CC4)n4ncnc(N)c34)[nH]c12 [OSI-027] (partner 0.5 µM)
Procedure, shortened: as §1

Row | Cell Line | relative viability (TGX 221 + Pemetrexed; first compound 0.08 µM) | relative viability (TGX 221 + Pemetrexed; first compound 0.253 µM) | relative viability (TGX 221 + Pemetrexed; first compound 0.8 µM) | relative viability (TGX 221 + Pemetrexed; first compound 2.53 µM) | relative viability (TGX 221 + Pemetrexed; first compound 8 µM) | relative viability ([1]; first compound 0.08 µM) | relative viability ([1]; first compound 0.253 µM) | relative viability ([1]; first compound 0.8 µM) | relative viability ([1]; first compound 2.53 µM) | relative viability ([1]; first compound 8 µM) | relative viability ([2]; first compound 0.08 µM) | relative viability ([2]; first compound 0.253 µM) | relative viability ([2]; first compound 0.8 µM) | relative viability ([2]; first compound 2.53 µM) | relative viability ([2]; first compound 8 µM) | relative viability (TGX 221 + OSI-027; first compound 0.08 µM) | relative viability (TGX 221 + OSI-027; first compound 0.253 µM) | relative viability (TGX 221 + OSI-027; first compound 0.8 µM) | relative viability (TGX 221 + OSI-027; first compound 2.53 µM) | relative viability (TGX 221 + OSI-027; first compound 8 µM)
1 | 201T | 0.324 | 0.373 | 0.318 | 0.351 | 0.374 | 1.08 | 1.03 | 1.01 | 1.01 | 1.08 | 0.564 | 0.597 | 0.521 | 0.516 | 0.654 | 0.547 | 0.726 | 1.08 | 0.708 | 0.696
2 | A549 |  |  |  |  |  | 0.733 | 1.14 | 0.908 | 0.707 | 0.604 |  |  |  |  |  |  |  |  |  | 
3 | A-427 | 0.992 | 0.987 | 0.963 | 0.989 | 0.953 | 1.08 | 1.13 | 1.13 | 1.11 | 1.12 | 0.645 | 0.67 | 0.716 | 0.658 | 0.619 | 0.53 | 0.491 | 0.506 | 0.473 | 0.448
4 | ABC-1 |  |  |  |  |  | 1.09 | 1.08 | 1.08 | 0.878 | 1.01 | 0.526 | 0.65 | 0.559 | 0.542 | 0.432 | 0.518 | 0.505 | 0.593 | 0.432 | 0.406
5 | BEN | 0.728 | 0.715 | 0.727 | 0.645 | 0.775 | 0.828 | 1.11 | 0.918 | 1.27 | 0.756 | 0.287 | 0.284 | 0.312 | 0.318 | 0.318 | 0.293 | 0.271 | 0.276 | 0.287 | 0.296
6 | CAL-12T | 1.12 | 0.976 | 1.21 | 1.25 | 1.17 |  | 1.05 | 0.989 | 1.2 | 0.861 | 0.389 | 0.353 | 0.435 | 0.36 | 0.362 | 0.604 | 0.471 | 0.821 | 0.486 | 0.567
7 | COR-L23 | 0.22 | 0.198 | 0.186 | 0.218 | 0.189 | 0.832 | 0.998 | 0.702 | 0.92 | 0.63 | 0.492 | 0.48 | 0.61 | 0.548 | 0.272 | 0.713 | 0.777 | 0.815 | 0.835 | 0.715
8 | COR-L 105 | 1.1 | 1.08 | 0.857 | 1 | 0.81 | 0.859 | 1.04 | 0.93 | 0.802 | 0.953 | 0.337 | 0.301 | 0.272 | 0.302 | 0.309 | 0.793 | 0.612 | 0.759 | 1.03 | 0.627
9 | Calu-6 |  |  |  |  |  | 1.15 | 0.993 | 1.11 | 1.01 | 1.09 |  |  |  |  |  |  |  |  |  | 
10 | ChaGo-K-1 | 0.264 | 0.259 | 0.236 | 0.231 | 0.254 |  |  |  |  |  | 0.48 | 0.614 | 0.661 | 0.595 | 0.542 | 0.529 | 0.547 | 0.581 | 0.474 | 0.64
